Reference: patent EP2832347B1, “Method for identifying patchouli odorant materials” (Takasago International Corporation, priority 2013, dated 2015)
Several values for one entry are separate records, joined by “and”; a condition that tells them apart may be missing. Equal entries are not always repeated.

Assay: Long-lasting analysis on scent strip (GC-MS with internal standard)
Type: physicochemical
Details: for PA (GC-MS signal), sample 1-3 / Ratio PA/IS, sample 1-3: individual scent strips, listed as PA
Procedure: In one embodiment, the long-lasting analysis is carried out as follows: 50 µl of a 1 % solution of the identified candidate to be tested in alcohol, preferably ethanol, are applied on a scent strip, preferably a cellulosic scent strip, to be dosed. The strip is allowed to dry under ambient laboratory conditions, with normal room air movement, in particular no fan, heating or any mean or device to accelerate evaporation. After different times, each strip or at least the part of the scent strip including the area where the solution of the identified candidate to be tested was applied is extracted using 3 ml of alcohol, preferably ethanol, containing an internal standard, such as methyl decanoate. The extracts are then analyzed by gas chromatography and the result is normalized for the principal molecular ion of the identified candidate using the value for the internal standard.
50 µl of a 1 % solution of patchouli alcohol in ethanol was added by pipette to the tip to a series of different scent strips (SARL H. GRANGER-VEYRON, Privas, France). The strips were allowed to dry under ambient laboratory conditions.
After different times (t0, t0+1hour, t0+2hours, t0+4hours, t0+8hours) the tip of a strip where the 50 µl of the solution of the tested material had been applied was cut and put in a 30 ml bottle and extracted using 3 ml of ethanol, containing 50 µl of methyl decanoate as internal standard (10000 ppm solution in cyclohexane), added to each bottle. Care was taken to ensure the entire area around the point of application was included in the area that was cut and extracted. The content of the bottles was mixed for 30 min on a roller bed, and 2 ml vials were then filled with each sample.
Samples were triplicated, i.e. 3 scent strip tips were analysed for each time point.
In a first series of experiments, samples taken at t0, t0+1hour and t0+2hours were analyzed by GC-MS on a […] gas chromatography column (column BC-WAX (50m * 0.25mm * 0.15µm) which is a GC Sciences column supplied by Interchim, Montluçon, France).
In a second series of experiments, samples taken at t0, t0+4hours and t0+8hours were analyzed by GC-MS on a non-polar gas chromatography column (HP-5MS UI (30m * 0.25mm * 0.25µm) which is an Agilent column supplied by Chromoptic, Courtaboeuf, France).
In Tables 6-11, PA stands for patchouli alcohol and IS stands for the internal standard, i.e. methyl decanoate. When plotting the residual concentration of patchouli on the scent strip as a function of time, the mean ratio at t0 was normalized to 100 and then t0+1h, t0+2h, t0+4h and t0+8h were calculated; t0 being defined as 2 minutes after dosing the 50 µl of the solution of the tested material, which was applied towards the tip of the scent strip.
A "long-lasting" analysis of pogostone was performed as described in Example 5 with samples taken at t0, t0+1hour and t0+2hours.
In Tables 12-14 herebelow, POG stands for pogostone and IS stands for the internal standard, i.e. methyl decanoate. The mean ratio at t0 was normalized as described in Example 5.

[1] = t0, second series, HP-5MS UI column

C[C@H]1CC[C@@]2(O)C(C)(C)[C@@H]3CC[C@@]2(C)[C@H]1C3 [Patchouli alcohol]
retained initial concentration (after 1 hour on scent strip): at least 10% | PA (GC-MS signal), mean value (t0+1h, BC-WAX column): 2.09E+06 | Ratio PA/IS, mean value (t0+1h, BC-WAX column): 6.70E-01 | PA (GC-MS signal), sample 1-3 (t0+1h, BC-WAX column): 2.10E+06 and 2.12E+06 and 2.05E+06 | Ratio PA/IS, sample 1-3 (t0+1h, BC-WAX column): 6.50E-01 and 7.16E-01 and 6.43E-01 | PA (GC-MS signal), mean value (t0+2h, BC-WAX column): 1.35E+06 | Ratio PA/IS, mean value (t0+2h, BC-WAX column): 4.29E-01 | PA (GC-MS signal), sample 1-3 (t0+2h, BC-WAX column): 1.38E+06 and 1.32E+06 and 1.35E+06 | Ratio PA/IS, sample 1-3 (t0+2h, BC-WAX column): 3.74E-01 and 4.52E-01 and 4.62E-01 | PA (GC-MS signal), mean value (t0+4h, HP-5MS UI column): 3.26E+06 | Ratio PA/IS, mean value (t0+4h, HP-5MS UI column): 4.15E-01 | PA (GC-MS signal), sample 1-3 (t0+4h, HP-5MS UI column): 3.83E+06 and 2.94E+06 and 3.00E+06 | Ratio PA/IS, sample 1-3 (t0+4h, HP-5MS UI column): 4.67E-01 and 3.89E-01 (2×) | PA (GC-MS signal), mean value (t0+8h, HP-5MS UI column): 1.58E+06 | Ratio PA/IS, mean value (t0+8h, HP-5MS UI column): 1.86E-01 | PA (GC-MS signal), sample 1-3 (t0+8h, HP-5MS UI column): 2.02E+06 and 1.37E+06 and 1.35E+06 | Ratio PA/IS, sample 1-3 (t0+8h, HP-5MS UI column): 2.16E-01 and 1.77E-01 and 1.65E-01 | PA (GC-MS signal), mean value (t0, BC-WAX column): 2.93E+06 | Ratio PA/IS, mean value (t0, BC-WAX column): 9.67E-01 | PA (GC-MS signal), sample 1-3 (t0, BC-WAX column): 2.98E+06 and 2.87E+06 and 2.94E+06 | Ratio PA/IS, sample 1-3 (t0, BC-WAX column): 9.42E-01 and 9.89E-01 and 9.69E-01 | PA (GC-MS signal), mean value [1]: 9.18E+06 | Ratio PA/IS, mean value [1]: 1.24E+00 | PA (GC-MS signal), sample 1-3 [1]: 9.37E+06 and 9.23E+06 and 8.94E+06 | Ratio PA/IS, sample 1-3 [1]: 1.25E+00 and 1.22E+00 and 1.26E+00
